Data published in patent US12171775B2, “Use of cladribine for treating autoimmune neuromuscular disease” (priority 2017, dated 2024).

Key:
[1] = system: patient with acetylcholine receptor antibody positive myasthenia gravis; experiment: Treatment of a person suffering from myasthenia gravis with cladribine (single patient; clinical rating scales and tolerability); format: in vivo, human
Method: A patient with existing, acetylcholine receptor antibody positive myasthenia gravis (MG) diagnosed.
They received 20 mg cladribine, administered by subcutaneous injection of 2.5 mg cladribine in 2.5 ml in each of four limbs (total 10 mg), on each of two consecutive days. This total dose of 20 mg is markedly less than the total doses of 200-400 mg given in recent multiple sclerosis trials. Clinical assessment using two scales was performed one week before initiation of cladribine administration, and three months after first cladribine administration. The treatment with oral steroids and pyridostigmine remained stable over observation period.
The two scales used were:
• Myasthenia Gravis Composite Scale (Burns T et al. Neurology 74:1434-40 (2010) • Myasthenia Gravis Activities of Daily Living (Wolfe G et al. Neurology 52: 1487-89 (1999)

[2] = target: A2A (adenosine receptor class 2a) (Homo sapiens, UniProt P29274); conditions: cited from earlier work
Chain of A2A (adenosine receptor class 2a) (P29274 whole entry): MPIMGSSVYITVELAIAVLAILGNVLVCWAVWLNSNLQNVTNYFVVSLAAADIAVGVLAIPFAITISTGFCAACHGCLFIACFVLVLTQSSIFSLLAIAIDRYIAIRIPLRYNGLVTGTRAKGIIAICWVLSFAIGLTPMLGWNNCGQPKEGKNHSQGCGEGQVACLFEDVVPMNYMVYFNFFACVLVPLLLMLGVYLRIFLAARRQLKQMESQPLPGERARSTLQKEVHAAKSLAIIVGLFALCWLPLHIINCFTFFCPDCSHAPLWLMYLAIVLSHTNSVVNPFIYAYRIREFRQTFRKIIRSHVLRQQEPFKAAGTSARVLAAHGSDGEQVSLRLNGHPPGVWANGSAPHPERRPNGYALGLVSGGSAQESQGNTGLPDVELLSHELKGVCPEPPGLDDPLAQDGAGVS

human lymphocytes = conditions: phosphorylation by CK blocked, lymphocyte death does not occur; cited from earlier work
[3] = system: multiple sclerosis (MS) patients; conditions: 3.5 mg/kg and 5.25 mg/kg by oral tablets; cited from earlier work
[4] = system: patient with IgM associated inflammatory peripheral neuropathy; conditions: intravenous, approximately 100 mg cumulative dose; cited from earlier work
[5] = 3 months post vs pre-cladribine

SMILES	Tolerability of prior azathioprine treatment ([1]; same MG patient, before cladribine, stopped after 1 week of treatment)	Affinity at A2A receptors [2]	Induced cytokine production (human lymphocytes)	MG Composite Scale score, 3 months post-cladribine ([1]; 20 mg total s.c. (10 mg on each of two consecutive days), 3 months after first administration, pre-cladribine score 31)	MG Activities of Daily Living score, 3 months post-cladribine ([1]; 20 mg total s.c., 3 months after first administration, pre-cladribine score 19)	Adverse events considered possible side effects of cladribine ([1]; 20 mg total s.c., MG patient)	Transient worsening of signs after treatment initiation ([1]; 20 mg total s.c., MG patient)	Improvement on the MG Activities of Daily Living scale [1, 5]	Improvement on the MG Composite Scale [1, 5]	Durability of clinical improvement after the 3 month assessment ([1]; MG patient, led to gradual withdrawal of baseline treatment)	Period of beneficial effects on the disease without frequent retreatment ([1]; after a short period of treatment)	Clinical outcome in MS (relapses, disability, MRI disease activity) [3]	Clinical outcome in IgM associated inflammatory peripheral neuropathy [4]
Cn1cnc([N+](=O)[O-])c1Sc1ncnc2nc[nH]c12 [azathioprine]	severe intolerance due to nausea and vomiting	–	–	–	–	–	–	–	–	–	–	–	–
Nc1nc(Cl)nc2c1ncn2[C@H]1C[C@H](O)[C@@H](CO)O1 [cladribine, 2-chloro-2′-deoxyadenosine]	–	high affinity	decreased	6	8	did not experience any adverse events	did not produce a transient worsening of signs	11 point	25 point	sustained over the following seven months	over 10 months	fewer relapses, less disability, and less disease activity	symptomatic improvement and reduced levels of pathogenic antibodies
